From patent US8124032B2, “Microfluidic device and method of using same” (priority 2004, dated 2012)

Test system: single yeast cell (intracellular carboxylesterase, efflux process)
Assay: Single-cell FDA metabolism (influx/hydrolysis/efflux), curve fitting to enzymatic model
Type: cell-based, Sacchomyces cereviase
From the text: In one of the embodiments of the invention, to study a model of a yeast metabolic process using the microfluidic device of the invention, the inventors selected a cell-permeable fluorogenic substrate, fluorescein diacetate (FDA), which is normally used to determine cell viability^42. After influx of FDA into a yeast cell, the intracellular enzyme carboxylesterase^43 hydrolyzes FDA to fluorescein, which will then be excreted from the cell (through efflux).
To examine the cells in an embodiment of the microfluidic device, the device was placed on the translation stage of an inverted microscope and simultaneous optical observation and fluorescent measurement were carried out. To carry out fluorescent intensity calibration in the microfluidic device, polystyrene beads (6 μm diameter, InSpeck™ Green, Molecular Probes) were used. Three-dimensional liquid flow control was accomplished by either electric or fluid potential.
With electric potential control, only low-conducting liquids, such as G7, H4 could be delivered to the cells (cell 3, 4, 5). The two buffers were G7 (28.5 mM HEPES, 256 mM D-glucose, pH=7.3) and H4 (285 mM HEPES, pH=4.3). 12 μM FDA was used, where appropriate. With fluid potential (<1 mm) control, highly conducting liquids such as YPD, NaCl, KCl, EDTA could also be used.
FIG. 16I depicts the schematic diagram of a yeast cell with a daughter bud, showing the relationship between the concentrations of extracellular FDA (A), intracellular FDA (B) and fluorescein (C) as a function of time (t). The kinetic model can be described by several equations. Equation (1) is the material balance of FDA (B) in the cell. Equation (2) is the material balance of fluorescein (C) in the cell. Equations (1) and (2) were derived from first principles as discussed below.
[formula] The notations are A: extracellular FDA (μM); B: intracellular FDA (μM); C: intracellular fluorescein (μM); S: cell surface area (μm^2) and V: cell volume (μm^3), as calculated from the diameter (μm) of the cell (D1) and its bud (D2); kb: transport coefficient (μm s^−1); Vm (μM s^−1) and Km (μM): Michaelis-Menten kinetic parameters for the carboxylesterase; Ve (μM μm s^−1) and Ke (μM): Michaelis-Menten kinetic parameters for the efflux process.
[formula] Equation (3) represents the increasing rate of the carboxylesterase activity as indicated by the Michaelis-Menten parameter Vm, where k is the rate constant (μM s^−2). Derivation for Equation (1): Material Balance of FDA in the Cell
Here, T0, T1 and T2 are the time at which influx, hydrolysis and efflux start, respectively.
In the self-control mode, when influx is not allowed, kb=0. […] During hydrolysis (T1 to T2), there is no influx and efflux, i.e. kb=0, Vm>0, and Ve=0. Finally, during efflux (after T2), there is no influx and hydrolysis, i.e. kb=0, Vm=0, and Ve>0. In the lost-control mode, kb>0, Vm>0, and Ve>0. In the “death” mode, kb=0, Vm=0, and Ve=0. In this case, the cell appears dead when there is no change in the concentration of cellular fluorescein.
Curve-fitting experiments were also carried out for two other single yeast cells under various stimuli, see FIG. 17.

[1] = cell 3, T0 2140 s, self-control mode
[2] = cell 4, T0 2560 s, self-control mode
[3] = cell 4, T0 4950 s, self-control mode
[4] = cell 4, T0 6590 s, self-control mode
[5] = cell 4, T0 8627 s, lost-control mode
[6] = cell 5, T0 208 s, self-control mode
[7] = cell 5, T0 1030 s, self-control mode
[8] = cell 5, T0 2026 s, self-control mode
[9] = cell 5, T0 3300 s, self-control mode
[10] = cell 5, T0 5600 s, lost-control mode
[11] = cell ‡ (another single yeast cell similar to cell 3), T0 2200 s, self-control mode

In the case of `CC(=O)Oc1ccc2c(c1)Oc1cc(OC(C)=O)ccc1C21OC(=O)c2ccccc21` [FDA, fluorescein diacetate], the “Vm0 (initial value of Vm, carboxylesterase)” value (shortened to “Vm0”) [1] is reported as 0.0012 µM/s, the “k (rate constant of increase of Vm)” value [1] is reported as 4 10^−6 μM s^−2 and the “Vm0” value [2] is reported as 0.002 µM/s. For the same molecule, the “k (rate constant of increase of Vm)” value [2] was 25 10^−6 μM s^−2, the “Vm0” value [3] was 0.01 µM/s and the “k (rate constant of increase of Vm)” value [3] was 25 10^−6 μM s^−2. For the same molecule, the “Vm0” value [4] was 0.04 µM/s, the “k (rate constant of increase of Vm)” value [4] was 0 10^−6 μM s^−2 and the “Vm0” value [5] was 0.009 µM/s. The “k (rate constant of increase of Vm)” value [5] was 0 10^−6 μM s^−2, the “Vm0” value [6] was 0.02 µM/s and the “k (rate constant of increase of Vm)” value [6] was 0 10^−6 μM s^−2. The “Vm0” value [7] was 0.005 µM/s, the “k (rate constant of increase of Vm)” value [7] was 0 10^−6 μM s^−2 and the “Vm0” value [8] was 0.0018 µM/s. For the same molecule, the “k (rate constant of increase of Vm)” value [8] was 2 10^−6 μM s^−2, the “Vm0” value [9] was 0.004 µM/s and the “k (rate constant of increase of Vm)” value [9] was 15 10^−6 μM s^−2. The “Vm0” value [10] was 0.015 µM/s, the “k (rate constant of increase of Vm)” value [10] was 0 10^−6 μM s^−2 and the “Vm0” value [11] was 0.007 µM/s. The “k (rate constant of increase of Vm)” value [11] was 4 10^−6 μM s^−2.
